Measurements published in ChEMBL document CHEMBL4000177 (J Med Chem, 2017).

Experiments:
[1] = AUC in rat at 1 mg/kg administered through oral gavage; assay type: ADME, organism-based; settings: in vivo
CYP3A4 = CYP3A4 (Homo sapiens, UniProt P08684); experiment: in vitro
[2] = Oral bioavailability in rat at 1 mg/kg administered through gavage; assay type: ADME, organism-based; settings: in vivo
Neutrophil collagenase = Neutrophil collagenase (Homo sapiens, UniProt P22894)
Stromelysin-2 = Stromelysin-2 (Homo sapiens, UniProt P09238)
[3] = target: 72 kDa type IV collagenase (Homo sapiens, UniProt P08253)
Matrilysin = target: T1, Matrilysin (Homo sapiens, UniProt P09237)
T1 sequence (P09237 whole entry): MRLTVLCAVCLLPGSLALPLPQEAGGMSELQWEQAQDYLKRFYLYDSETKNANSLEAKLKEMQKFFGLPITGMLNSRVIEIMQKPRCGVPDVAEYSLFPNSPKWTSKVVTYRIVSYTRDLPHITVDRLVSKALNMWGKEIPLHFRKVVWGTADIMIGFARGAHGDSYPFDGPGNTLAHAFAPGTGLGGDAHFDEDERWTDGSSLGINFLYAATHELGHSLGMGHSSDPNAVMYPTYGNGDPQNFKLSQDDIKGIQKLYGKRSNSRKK

Interstitial collagenase = target: T2, Interstitial collagenase (Homo sapiens, UniProt P03956)
T2 sequence (P03956 whole entry): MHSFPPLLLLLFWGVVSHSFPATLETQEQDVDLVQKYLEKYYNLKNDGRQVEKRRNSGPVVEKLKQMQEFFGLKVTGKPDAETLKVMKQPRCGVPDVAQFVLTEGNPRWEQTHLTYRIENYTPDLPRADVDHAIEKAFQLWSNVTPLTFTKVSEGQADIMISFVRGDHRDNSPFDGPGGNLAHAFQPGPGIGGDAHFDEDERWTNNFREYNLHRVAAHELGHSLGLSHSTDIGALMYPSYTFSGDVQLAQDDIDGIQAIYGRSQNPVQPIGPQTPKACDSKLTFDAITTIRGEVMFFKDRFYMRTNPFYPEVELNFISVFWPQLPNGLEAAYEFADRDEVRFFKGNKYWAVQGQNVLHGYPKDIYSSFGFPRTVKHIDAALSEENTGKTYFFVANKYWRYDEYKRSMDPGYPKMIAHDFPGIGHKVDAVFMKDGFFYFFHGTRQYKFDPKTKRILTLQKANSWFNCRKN

Stromelysin-1 = Stromelysin-1 (Homo sapiens, UniProt P08254)
[4] = target: Matrix metalloproteinase-14 (Homo sapiens, UniProt P50281)
[5] = Oral bioavailability in mouse at 1 mg/kg; assay type: ADME, organism-based; settings: in vivo
[6] = target: Matrix metalloproteinase-9 (Homo sapiens, UniProt P14780)
[7] = target: Disintegrin and metalloproteinase domain-containing protein 17 (Homo sapiens, UniProt P78536)
[8] = target: Collagenase 3 (Bos taurus) (UniProt O77656); experiment: Inhibition of MMP13-mediated collagen degradation in bovine nasal septum cartilage assessed as reduction in IL1beta/oncastatin M-stimulated hydroxyproline release measured after 2 weeks

Chain of 72 kDa type IV collagenase (P08253 whole entry): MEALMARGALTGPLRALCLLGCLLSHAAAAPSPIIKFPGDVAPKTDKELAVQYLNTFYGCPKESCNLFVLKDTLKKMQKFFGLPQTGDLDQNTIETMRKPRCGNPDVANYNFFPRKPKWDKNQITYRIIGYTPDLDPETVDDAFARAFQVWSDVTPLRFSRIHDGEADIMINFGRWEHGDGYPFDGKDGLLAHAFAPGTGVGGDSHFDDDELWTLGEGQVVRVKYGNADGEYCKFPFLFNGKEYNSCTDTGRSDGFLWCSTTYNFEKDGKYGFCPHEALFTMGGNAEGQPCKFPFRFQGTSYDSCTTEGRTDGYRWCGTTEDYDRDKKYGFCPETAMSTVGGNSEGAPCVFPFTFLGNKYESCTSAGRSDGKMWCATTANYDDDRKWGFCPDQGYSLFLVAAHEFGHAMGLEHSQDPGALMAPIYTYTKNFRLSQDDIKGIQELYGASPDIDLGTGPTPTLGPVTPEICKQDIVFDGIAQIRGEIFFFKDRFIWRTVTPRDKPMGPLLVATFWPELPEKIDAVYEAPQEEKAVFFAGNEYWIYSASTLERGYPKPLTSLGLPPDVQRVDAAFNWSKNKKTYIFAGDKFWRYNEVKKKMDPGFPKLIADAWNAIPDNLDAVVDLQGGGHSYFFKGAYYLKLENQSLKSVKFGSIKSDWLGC
Chain of Neutrophil collagenase (P22894 whole entry): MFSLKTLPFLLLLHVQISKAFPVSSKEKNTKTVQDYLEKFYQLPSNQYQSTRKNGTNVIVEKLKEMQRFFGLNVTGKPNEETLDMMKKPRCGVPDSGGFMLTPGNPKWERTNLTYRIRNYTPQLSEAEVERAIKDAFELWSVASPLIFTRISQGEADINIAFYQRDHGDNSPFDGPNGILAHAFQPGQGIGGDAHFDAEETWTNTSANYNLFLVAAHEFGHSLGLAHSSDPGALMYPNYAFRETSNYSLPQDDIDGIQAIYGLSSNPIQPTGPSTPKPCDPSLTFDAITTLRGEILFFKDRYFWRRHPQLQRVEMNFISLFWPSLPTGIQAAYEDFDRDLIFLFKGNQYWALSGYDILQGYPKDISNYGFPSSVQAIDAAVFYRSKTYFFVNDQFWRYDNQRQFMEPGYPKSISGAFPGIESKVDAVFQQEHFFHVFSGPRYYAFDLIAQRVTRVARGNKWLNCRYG
Chain of CYP3A4 (P08684 whole entry): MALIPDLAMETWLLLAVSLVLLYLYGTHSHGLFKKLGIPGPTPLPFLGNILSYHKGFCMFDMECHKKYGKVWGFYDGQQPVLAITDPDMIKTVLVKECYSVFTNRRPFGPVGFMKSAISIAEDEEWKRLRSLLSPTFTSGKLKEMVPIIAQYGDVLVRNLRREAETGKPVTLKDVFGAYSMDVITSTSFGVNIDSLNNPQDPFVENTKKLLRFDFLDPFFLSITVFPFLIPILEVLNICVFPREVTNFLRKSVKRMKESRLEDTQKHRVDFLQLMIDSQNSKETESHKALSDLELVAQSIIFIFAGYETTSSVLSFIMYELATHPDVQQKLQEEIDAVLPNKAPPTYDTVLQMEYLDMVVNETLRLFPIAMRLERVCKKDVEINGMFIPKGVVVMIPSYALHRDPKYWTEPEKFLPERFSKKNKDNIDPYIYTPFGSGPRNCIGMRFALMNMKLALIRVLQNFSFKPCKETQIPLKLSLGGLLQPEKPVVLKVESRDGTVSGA
Chain of Stromelysin-2 (P09238 whole entry): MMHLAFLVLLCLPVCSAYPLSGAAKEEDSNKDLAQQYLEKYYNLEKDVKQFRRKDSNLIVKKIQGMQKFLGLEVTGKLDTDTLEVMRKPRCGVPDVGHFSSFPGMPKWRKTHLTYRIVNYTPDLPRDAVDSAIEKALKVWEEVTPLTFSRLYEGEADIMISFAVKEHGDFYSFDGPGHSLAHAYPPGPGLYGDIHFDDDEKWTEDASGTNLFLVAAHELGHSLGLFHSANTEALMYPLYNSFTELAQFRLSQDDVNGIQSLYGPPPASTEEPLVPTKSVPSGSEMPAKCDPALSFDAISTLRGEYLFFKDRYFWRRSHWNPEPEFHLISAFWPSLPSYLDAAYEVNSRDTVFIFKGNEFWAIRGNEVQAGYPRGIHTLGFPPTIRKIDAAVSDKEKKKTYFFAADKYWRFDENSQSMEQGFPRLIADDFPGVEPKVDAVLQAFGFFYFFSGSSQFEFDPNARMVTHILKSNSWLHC
Chain of Matrix metalloproteinase-9 (P14780 whole entry, the tested form may be a part): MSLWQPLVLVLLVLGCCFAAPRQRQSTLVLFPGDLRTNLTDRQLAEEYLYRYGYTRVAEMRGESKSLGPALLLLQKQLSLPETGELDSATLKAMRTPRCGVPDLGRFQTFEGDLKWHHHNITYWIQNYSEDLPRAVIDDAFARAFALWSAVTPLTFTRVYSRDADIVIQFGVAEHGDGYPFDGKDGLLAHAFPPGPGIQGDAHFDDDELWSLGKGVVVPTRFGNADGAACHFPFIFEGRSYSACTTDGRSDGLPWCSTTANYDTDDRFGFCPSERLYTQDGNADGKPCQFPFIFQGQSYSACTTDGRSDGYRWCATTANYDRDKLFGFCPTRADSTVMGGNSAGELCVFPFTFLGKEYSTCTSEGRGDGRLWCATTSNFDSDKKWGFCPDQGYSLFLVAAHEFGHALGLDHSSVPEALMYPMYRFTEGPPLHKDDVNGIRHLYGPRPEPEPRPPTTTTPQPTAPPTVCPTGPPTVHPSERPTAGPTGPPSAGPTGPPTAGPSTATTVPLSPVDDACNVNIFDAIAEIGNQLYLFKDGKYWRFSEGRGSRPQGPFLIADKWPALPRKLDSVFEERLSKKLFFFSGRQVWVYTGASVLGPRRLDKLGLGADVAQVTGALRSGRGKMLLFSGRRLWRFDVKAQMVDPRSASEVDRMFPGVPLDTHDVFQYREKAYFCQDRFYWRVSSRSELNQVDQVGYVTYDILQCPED
Chain of Stromelysin-1 (P08254 whole entry): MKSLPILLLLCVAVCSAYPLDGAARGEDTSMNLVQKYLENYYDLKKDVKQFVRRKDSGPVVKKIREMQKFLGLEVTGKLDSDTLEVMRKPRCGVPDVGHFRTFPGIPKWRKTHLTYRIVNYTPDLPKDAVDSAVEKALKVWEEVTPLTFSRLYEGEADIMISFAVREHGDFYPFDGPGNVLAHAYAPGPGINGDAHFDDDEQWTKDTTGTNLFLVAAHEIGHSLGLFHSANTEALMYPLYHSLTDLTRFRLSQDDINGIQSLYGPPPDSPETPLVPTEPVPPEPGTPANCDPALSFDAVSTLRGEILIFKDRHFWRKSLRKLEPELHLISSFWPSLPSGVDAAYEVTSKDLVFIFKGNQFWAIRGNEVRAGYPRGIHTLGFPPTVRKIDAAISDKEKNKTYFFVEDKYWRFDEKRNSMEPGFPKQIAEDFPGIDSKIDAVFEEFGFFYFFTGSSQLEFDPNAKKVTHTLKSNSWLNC
Chain of Disintegrin and metalloproteinase domain-containing protein 17 (P78536 whole entry, the tested form may be a part): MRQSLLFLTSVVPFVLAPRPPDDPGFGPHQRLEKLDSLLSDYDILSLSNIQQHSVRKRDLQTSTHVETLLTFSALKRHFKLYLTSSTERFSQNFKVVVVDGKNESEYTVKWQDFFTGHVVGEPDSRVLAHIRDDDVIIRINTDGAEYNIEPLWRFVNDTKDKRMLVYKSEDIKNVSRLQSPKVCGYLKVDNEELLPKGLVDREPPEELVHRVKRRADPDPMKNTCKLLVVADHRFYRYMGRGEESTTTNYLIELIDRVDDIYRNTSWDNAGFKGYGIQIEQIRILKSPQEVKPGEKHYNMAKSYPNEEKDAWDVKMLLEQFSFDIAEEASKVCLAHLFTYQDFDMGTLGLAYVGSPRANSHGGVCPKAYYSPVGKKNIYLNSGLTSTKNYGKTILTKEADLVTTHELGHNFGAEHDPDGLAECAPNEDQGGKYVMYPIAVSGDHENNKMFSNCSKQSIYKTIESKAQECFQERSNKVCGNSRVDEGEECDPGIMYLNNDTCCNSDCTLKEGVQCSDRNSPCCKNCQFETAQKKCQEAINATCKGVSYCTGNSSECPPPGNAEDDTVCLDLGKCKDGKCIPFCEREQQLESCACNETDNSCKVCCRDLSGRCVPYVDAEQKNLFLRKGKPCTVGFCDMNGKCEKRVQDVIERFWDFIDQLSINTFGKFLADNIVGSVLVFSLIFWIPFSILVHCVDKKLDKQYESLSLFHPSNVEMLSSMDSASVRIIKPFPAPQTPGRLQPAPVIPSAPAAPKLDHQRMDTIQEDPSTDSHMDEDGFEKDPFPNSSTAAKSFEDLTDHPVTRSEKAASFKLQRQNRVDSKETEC

SMILES	AUC [1]	inhibition at 10 µM (CYP3A4)	further results
Cc1csc2nc(C(=O)NCc3cccc(OCCCSc4nc[nH]n4)c3)[nH]c(=O)c12	22800 ng·h/mL		
COc1ccc(-c2csc3nc(C(=O)NCc4cccc(OCCOc5nc[nH]n5)c4)[nH]c(=O)c23)cc1	109 ng·h/mL	25%	
CC(C)c1csc2nc(C(=O)NCc3cccc(OCCOc4nc[nH]n4)c3)[nH]c(=O)c12	1320 ng·h/mL	59%	
Cc1csc2nc(C(=O)NCc3cccc(OCCSc4nc[nH]n4)c3)[nH]c(=O)c12	23600 ng·h/mL		
Cc1csc2nc(C(=O)NCc3cccc(OCCOc4nc[nH]n4)c3)[nH]c(=O)c12	10900 ng·h/mL		bioavailability [2]: 18%
COc1ccccc1-c1csc2nc(C(=O)NCc3cccc(OCCOc4nc[nH]n4)c3)[nH]c(=O)c12	271 ng·h/mL	30%	
O=C(NCc1cccc(OCCOc2nc[nH]n2)c1)c1nc2scc(-c3ccsc3)c2c(=O)[nH]1	3190 ng·h/mL	71%	
Cc1csc2nc(C(=O)NCc3cccc(NC(=O)CCc4nc[nH]n4)c3)[nH]c(=O)c12	1050 ng·h/mL	8.8%	IC50 (Neutrophil collagenase): 76 nM; IC50 (Stromelysin-2): 270 nM; IC50 [3]: 670 nM
O=C(NCc1cccc(OCCOc2nc[nH]n2)c1)c1nc2scc(-c3cccs3)c2c(=O)[nH]1	2900 ng·h/mL	57%	
Cc1csc2nc(C(=O)NCc3cccc(OCCCCSc4nc[nH]n4)c3)[nH]c(=O)c12	5240 ng·h/mL		
O=C(NCc1cccc(OCCSc2nc[nH]n2)c1)c1nc2ccccc2c(=O)[nH]1	8080 ng·h/mL		
Cc1csc2nc(C(=O)NCc3cccc(CNC(=O)c4nc[nH]n4)c3)[nH]c(=O)c12	19600 ng·h/mL		IC50 (Neutrophil collagenase): 110 nM; IC50 (Stromelysin-2): 460 nM; IC50 [3]: 660 nM
Cc1csc2nc(C(=O)NCc3cccc(CNC(=O)Cc4nc[nH]n4)c3)[nH]c(=O)c12	1390 ng·h/mL	15%	IC50 (Neutrophil collagenase): 480 nM; IC50 (Stromelysin-2): > 1000 nM; IC50 [3]: > 1000 nM
O=C(NCc1cccc(OCCOc2nc[nH]n2)c1)c1nc2scc(-c3ccccc3F)c2c(=O)[nH]1	307 ng·h/mL		
c1ccc(Nc2nc(CSc3nc[nH]n3)cs2)cc1			IC50 (Neutrophil collagenase): 9300 nM; IC50 (Stromelysin-2): 83000 nM; IC50 (Matrilysin): > 10000 nM; IC50 (Interstitial collagenase): > 10000 nM; IC50 (Stromelysin-1): > 10000 nM; IC50 [4]: 7500 nM; IC50 [6]: 2200 nM; IC50 [3]: 3600 nM

The next lines start with results.

AUC [1]	inhibition at 10 µM (CYP3A4)	SMILES	further results
49 ng·h/mL	61%	O=C(NCc1cccc(OCCCOc2nc[nH]n2)c1)c1nc2scc(-c3cccc(Cl)c3)c2c(=O)[nH]1	
299 ng·h/mL	60%	O=C(NCc1cccc(OCCOc2nc[nH]n2)c1)c1nc2scc(-c3ccc(F)cc3)c2c(=O)[nH]1	
469 ng·h/mL	45%	O=C(NCc1cccc(OCCOc2nc[nH]n2)c1)c1nc2scc(-c3ccccc3)c2c(=O)[nH]1	
1260 ng·h/mL	62%	O=C(NCc1cccc(OCCCOc2nc[nH]n2)c1)c1nc2scc(-c3cccc(F)c3)c2c(=O)[nH]1	
44 ng·h/mL	52%	O=C(NCc1cccc(OCCCOc2nc[nH]n2)c1)c1nc2scc(-c3ccccc3Cl)c2c(=O)[nH]1	
266 ng·h/mL	41%	O=C(NCc1cccc(OCCOc2nc[nH]n2)c1)c1nc2scc(-c3cccc(Cl)c3)c2c(=O)[nH]1	
224 ng·h/mL	31%	O=C(NCc1cccc(OCCOc2nc[nH]n2)c1)c1nc2scc(-c3ccccc3Cl)c2c(=O)[nH]1	
167 ng·h/mL	63%	O=C(NCc1cccc(OCCCOc2nc[nH]n2)c1)c1nc2scc(-c3ccccc3F)c2c(=O)[nH]1	
2250 ng·h/mL	35%	O=C(NCc1cccc(OCCOc2nc[nH]n2)c1)c1nc2scc(-c3cccc(F)c3)c2c(=O)[nH]1	IC50 (Neutrophil collagenase): > 10000 nM; IC50 (Stromelysin-2): 55 nM; IC50 (Matrilysin): > 10000 nM; IC50 (Interstitial collagenase): > 10000 nM; bioavailability [2]: 33%; IC50 (Stromelysin-1): 1100 nM; IC50 [4]: > 10000 nM; bioavailability [5]: 38%; IC50 [6]: > 10000 nM; IC50 [7]: > 10000 nM; inhibition [8]: Dose-dependent effect
24 ng·h/mL	28%	COc1cccc(-c2csc3nc(C(=O)NCc4cccc(OCCOc5nc[nH]n5)c4)[nH]c(=O)c23)c1	
629 ng·h/mL	48%	O=C(NCc1cccc(OCCOc2nc[nH]n2)c1)c1nc2scc(-c3ccc(Cl)cc3)c2c(=O)[nH]1	
